Legend:
GSK-3 [1] = assay: Distalless (Dll) expression in Drosophila wing imaginal discs as assay of GSK-3 function; assay type: cell-based; conditions: 1 mM; Dll lacZ; vs DMSO
GSK-3 [2] = assay: Cytoplasmic β-catenin stabilization in HEK293T cells (Western blot); assay type: cell-based, human; conditions: 10 μM, vs DMSO-treated cells
Method: Human embryonic kidney 293T (HEK293T) cells, U87MG astrocytoma and the human oligodendrocyte cell line MO3-13 were grown in Dubelco Minimal Eagle Media (DMEM) (Invitrogen, Carlsbad, Calif., USA) supplemented with 5% heat inactivated fetal bovine serum. Cells were grown to 70% confluence prior to treatment. […] Cells were exposed to drug for 3 hours at 37° C. in a 5% CO2 incubator. U87MG cells were grown to 70% confluence prior to treatment. Cells were treated with either DMSO vehicle (NT) or individually with 1, 5 and 10 μM latanoprost in DMEM lacking fetal bovine serum. Cells were exposed to treatments for 6 hours at 37° C. in a 5% CO2 incubator. The human oligodendrocyte cell line MO3-13 was grown and differentiated according to the methods described in McLaurin et al. (McLaurin, J., Trudel, G. C., Shaw, I. T., Antel, J. P., and Cashman, N. R., J. Neurobiol., 26: 283-293, 1995). On the third day of serum starvation, cells were treated with either DMSO vehicle (NT) or individually with 1, 5 and 10 μM latanoprost. Cells were exposed to treatments for 6 hours at 37° C. in a 5% CO2 incubator.
For detection of CREB and Serine-133 (S133)-phosphorylated CREB, serotonin receptor 5HT2A, TCF/LEF1, BDNF and TNF-total protein extracts were prepared from cell cultures using a sintered glass tissue homogenizer (Wheaton, Millville, N.J., USA) in phosphate-buffered saline (PBS), pH 7.5, 3M urea. For detection of β-catenin, cell cultures were washed with PBS, trypsinized, and pelleted at 1,000 rpm for 4 minutes. The cell pellets were washed and resuspended in cold hypotonic buffer consisting of 10 mM HEPES (pH 7.5), 1.5 mM MgCl2, 10 mM KCl, 0.5 mM DTT, and EDTA-free protease inhibitor (Roche, Laval, QC, Canada) in an ice bath for 5 minutes. The mixture was then homogenized using a dounce homogenizer and the cellular debris was pelleted by centrifugation at 4° C. Cytoplasmic fractions were recovered and used for assaying β-catenin.
Protein concentrations were determined by the Peterson method (Peterson, Analyt. Biochem., 83: 346-356, 1977). […]

SMILES	Dll expression in wing imaginal discs (GSK-3 [1])	levels of cytoplasmic β-catenin (GSK-3 [2])
CCCC(CCC)C(=O)O [valproate]	activation of Dll expression	
CCCCC[C@H](O)/C=C/[C@@H]1[C@@H](C/C=C\CCCC(=O)O)[C@@H](O)C[C@H]1O [PGF2α, (Z)-7-[(1R,2R,3R,5S)-3,5-dihydroxy-2-[(E)-(3S)-3-hydroxy-1-octenyl]-cyclopentyl]-5-heptenoic acid]		increased levels of cytoplasmic β-catenin
CCCCC[C@H](O)/C=C/[C@H]1[C@H](O)CC(=O)[C@@H]1C/C=C\CCCC(=O)O [PGE2, (Z)-7-[(1R,2R,3R)-3-hydroxy-2-[(E)-(3S)-3-hydroxy-1-octenyl]-5-oxo-cyclopentyl]-hept-5-enoic acid]		increased levels of cytoplasmic β-catenin

Reference: patent publication US9259409B2, “Compositions comprising a prostaglandin for treating neuropsychiatric conditions” (Inceptum Research & Therapeutics, Inc., priority 2011, dated 2016)
